Among the data in patent US20250171400A1, “AZA-HETEROCYCLYL CARBOXAMIDE AND RELATED COMPOUNDS AND THEIR USE IN TREATING MEDICAL CONDITIONS” (X-BIOTIX THERAPEUTICS, INC., priority 2021, published 2025) are IC50 and MIC values, retold here.

By pIC50 is commonly meant the IC50 on a negative log10 scale, so that one unit is a factor of ten. The MIC is the least concentration at which growth counts as inhibited.

SMILES strings stand for the structures. pIC50: −log10 of the molar value. ≈ marks a conversion by molar mass, not a printed value. Where two headings read alike, the source gives them in different places. Some results are limits rather than exact numbers.

One assay addresses P. aeruginosa LpxC (Pseudomonas aeruginosa (strain ATCC 15692 / DSM 22644 / CIP 104116 / JCM 14847 / LMG 12228 / 1C / PRS 101 / PAO1), UniProt P47205). Put plainly: biochemical. It counts as biochemical. The following applies: 5 nM P. aeruginosa LpxC, 2.5 μM substrate, 1 hour at room temperature. Here is the method: (§1) Exemplary compounds from the above Examples were tested for ability to inhibit LpxC activity using an in vitro substrate deacetylation assay with ADDA™ analysis. Assay procedures and results are described below.
(§2) For ADDA™ analysis, an aliquot of assay sample was withdrawn from each well of the 384-well plate and applied to a Hypercarb cartridge (Optimize Technologies, USA) under conditions designed to retain analytes of interest. Analytes were eluted using 1:1:2 acetone:acetonitrile:water containing 5 mM ammonium acetate then analysed by triple-quadrupole mass spectrometry. Mass spectrometry was carried out using electrospray ionization in negative ion mode.
For IC50 determinations, peak areas of the substrate and product were compared to compute the proportion of substrate reacted by the LpxC enzyme at each compound concentration.

For another assay, the target named is E. coli LpxC (Escherichia coli (strain K12), UniProt P0A725). Put plainly: in vitro substrate deacetylation assay for inhibition of LpxC (ADDA analysis). The conditions noted are these: 5 nM E. coli LpxC, 2.5 μM substrate, 1 hour at room temperature. It counts as biochemical. Here is the method: as §1
Dilutions of test compound were pre-incubated with 5 nM P. aeruginosa or E. coli LpxC for 10 minutes at room temperature in 50 mM NaH2PO4, 500 mM sucrose, 0.2 mg/mL BSA, pH 7.2 and <1% DMSO. Reactions were initiated by the addition of 2× substrate (UDP-3-O—(R-3-hydroxydecanoyl)-N-acetylglucosamine, Carbosynth Ltd, UK, for P. aeruginosa LpxC and UDP-3-O—(R-3-hydroxymyristoyl)-N-acetylglucosamine, BOC Sciences, USA, for E. coli LpxC), in 50 mM NaH2PO4, 0.5 mg/mL BSA, pH 7.2, to a final concentration of 2.5 μM. Reactions proceeded for 1 hour at room temperature prior to quenching with and equal volume of 2% acetic acid.
as §2, with “mode. Daughter ion peaks representing detected substrate (P. aeruginosa: parent Q1 mass=775.8 amu, daughter Q3 mass=384.7 amu E. coli: parent Q1 mass=833.0 amu, daughter Q3 mass=385.0 amu, collision energy=analyte specific, dwell time=50 ms) were identified using a multiple-reaction monitoring protocol.” for “mode.”
Total activity (0% inhibition) was obtained from reactions containing no compound, and 100% inhibition is defined as reactions in the presence of 1 μM CHIR-090 (N-[(1S,2R)-2-hydroxy-1-[(hydroxyamino)carbonyl]propyl]-4-[2-[4-(4-morpholinylmethyl)phenyl]ethynyl]-benzamide). For IC50 determinations, peak areas of the substrate and product were compared to compute the proportion of substrate reacted by the LpxC enzyme at each compound concentration. The fractional activity was converted to percentage inhibition and plotted against compound concentration in ActivityBase™ and fit using a four-parameter logistic using non-linear regression to yield the IC50 value.

The test system of assay [1] is wild-type P. aeruginosa PAO1. Put plainly: broth microdilution minimum inhibition concentration assay. It counts as cell-based. The conditions noted are these: Pseudomonas aeruginosa. The protocol:
(§3) Exemplary compounds from the above Examples were tested to determine their minimum inhibitory concentration (MIC) for exemplary strains of Eschericia and Pseudomonas bacteria using broth microdilution methods. Assay procedures and results are described below.
(§4) Broth microdilution assays were conducted according to Clinical and Laboratory Standards Institute guidelines (CLSI, M07-A11: Clinical and Laboratory Standards Institute. Methods for Dilution Antimicrobial Susceptibility Tests for Bacteria that Grow Aerobically; Approved Standard—11th Edition. Wayne, PA: CLSI, 2018.). Briefly, a 0.5 McFarland standard suspension was made from bacterial isolates on non-selective, solid media. The inocula were adjusted to give a bacterial concentration of 1×10^6 CFU/mL. Serial doubling-dilutions of each compound were prepared in cation-adjusted Mueller-Hinton broth (Sigma-Aldrich) in 96-well microdilution plates. A 50 μL aliquot of the inoculum was added to each microdilution plate and, within 15 minutes, incubated at 37° C. in air for 16-20 h. […] The test was controlled by the determination of piperacillin MIC against both E. coli ATCC 25922 and P. aeruginosa ATCC 27853 and ensuring accordance with the ranges published in CLSI supplementary document M100 (CLSI, M100Ed29: Clinical and Laboratory Standards Institute. Performance Standards for Antimicrobial Susceptibility Testing, 29th Edition. Wayne, PA: CLSI, 2018.).
(§5) Multiple enterobacteriaceae strains were tested, including E. coli ATCC 25922 and K. pneumoniae ATCC 43816. WT E. coli BW25113 was tested with an isogenic mutant deficient in acrA mediated efflux by clean deletion. WT P. aeruginosa PAO1 was tested with an isogenic mutant deficient in MexA mediated efflux by clean deletion.
(§6) Experimental results are provided in Table 4, which provides MIC values for wild-type E. coli BW25113 (“E. coli WT MIC”), an isogenic mutant deficient in acrA mediated efflux by clean deletion (“E. coli KO MIC”), wild-type P. aeruginosa PAO1 (“P. aeruginosa WT MIC”), and an isogenic mutant deficient in MexA mediated efflux by clean deletion (“[…]”).
In general terms: In broth dilution the organism is exposed to a series of concentrations in liquid medium.

The subject of assay [2] is P. aeruginosa PAO1 isogenic mutant deficient in MexA mediated efflux. Described as above. It counts as cell-based. The conditions noted are these: Pseudomonas aeruginosa, PAO1, read-out: P. aeruginosa KO MIC. The protocol: as §3, §4, §5, §6
Assay [3] deals with wild-type E. coli BW25113. Described as above. The following applies: Escherichia coli; wild-type E. coli BW25113, 37° C. 16-20 h; read-out: E. coli WT MIC. Format: cell-based. Here is the method: as §3, §4, §5, §6
Assay [4] deals with E. coli BW25113 isogenic mutant deficient in acrA mediated efflux. Described as above. Format: cell-based. The following applies: Escherichia coli, BW25113, read-out: E. coli KO MIC. The protocol:
as §3, §4, §5, §6

The mark [5] stands for this setting: PAO1, read-out: P. aeruginosa WT MIC.
[6] abbreviates: wild-type P. aeruginosa PAO1, 37° C. 16-20 h, read-out: P. aeruginosa WT MIC.

Sequence of E. coli LpxC (P0A725 whole entry): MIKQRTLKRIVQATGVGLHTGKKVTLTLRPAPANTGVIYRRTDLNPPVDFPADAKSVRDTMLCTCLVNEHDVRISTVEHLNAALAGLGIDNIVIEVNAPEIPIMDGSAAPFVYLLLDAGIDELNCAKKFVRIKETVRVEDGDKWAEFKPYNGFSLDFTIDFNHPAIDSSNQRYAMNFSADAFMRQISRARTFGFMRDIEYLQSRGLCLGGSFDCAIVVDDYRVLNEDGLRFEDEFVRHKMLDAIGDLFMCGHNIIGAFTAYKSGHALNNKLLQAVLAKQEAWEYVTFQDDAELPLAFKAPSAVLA

In the case of `O=C(N[C@@H]1C[C@H](C(=O)NCc2ccc(C#CC#CC3CC3)cc2)N(C(=O)C2CCNCC2)C1)[C@@H]1C[C@H](F)CN1` [Example 9P], the pIC50 is 6.00 to 7.00 on P. aeruginosa LpxC and 5.00 to 5.60 at E. coli LpxC. Moreover, the MIC in assay [1] (setting [5]), in assay [2], in assay [3] and in assay [4] was > 100 µM throughout.
Regarding `CC(C)C(=O)N1C[C@H](NC(=O)[C@@H]2C[C@@H](F)CN2)C[C@@H]1C(=O)NCc1ccc(C#CC#CC2CC2)cc1` [Example 9I], the pIC50 was 6.00 to 7.00 against P. aeruginosa LpxC and 5.00 to 5.60 against E. coli LpxC. For the same compound, the MIC in assay [1] (setting [5]), in assay [2], in assay [3] and in assay [4] was > 100 µM in each case.
In the case of `COC(=O)N1C[C@H](NC(=O)[C@@H]2C[C@H](F)CN2)C[C@@H]1C(=O)NCc1ccc(C#Cc2ccc(CN3CCOCC3)cc2)cc1` [Example 9AG], the results for the pIC50 against P. aeruginosa LpxC and against E. coli LpxC were > 7.30 and > 6.30, respectively. In addition, the minimal inhibitory concentration (MIC) was > 100 µM in assay [1] (setting [6]), < 20 µM in assay [2], 20 to 100 µM (≈ 11.8 to 59.2 µg/mL) in assay [3] and < 20 µM in assay [4].
On to `CC(C)C(=O)N1C[C@H](NC(=O)[C@@H]2C[C@H](F)CN2)C[C@@H]1CNC(=O)c1ccc(C#Cc2ccc(CN3CCOCC3)cc2)cc1` [Example 5, (2S,4S)-4-Fluoro-N-((3R,5R)-1-isobutyryl-5-((4-((4-(morpholinomethyl)phenyl)ethynyl)benzamido)methyl)pyrrolidin-3-yl)pyrrolidine-2-carboxamide], for which the pIC50 was > 7.30 at P. aeruginosa LpxC and > 6.30 against E. coli LpxC. Besides, the minimum inhibitory concentration (MIC) was > 100 µM in assay [1] (setting [6]), < 20 µM in assay [2], < 20 µM in assay [3] and < 20 µM in assay [4].
With `O=C(O)CCN1C[C@H](NC(=O)[C@@H]2C[C@H](F)CN2)C[C@@H]1C(=O)NCc1ccc(C#CC#CC2CC2)cc1` [Example 9AO], the pIC50 is 6.00 to 7.00 against P. aeruginosa LpxC and 5.00 to 5.60 against E. coli LpxC. Moreover, the MIC in assay [1] (setting [5]), in assay [2], in assay [3] and in assay [4] was > 100 µM throughout.
As to `N[C@H]1C[C@H](C(=O)N2C[C@H](NC(=O)[C@@H]3C[C@H](F)CN3)C[C@@H]2C(=O)NCc2ccc(C#CC#CC3CC3)cc2)C1` [Example 9AF], the pIC50 on P. aeruginosa LpxC was 7.00 to 7.30; on E. coli LpxC it was 5.60 to 6.30. Besides, the minimum inhibitory concentration (MIC) in assay [1] (setting [5]), in assay [2], in assay [3] and in assay [4] was > 100 µM each time.
For `CC(C)C(=O)N1C[C@H](NC(=O)[C@@H]2CCCN2)C[C@@H]1C(=O)NCc1ccc(C#CC#CC2CC2)cc1` [Example 9L], the pIC50 at P. aeruginosa LpxC was 6.00 to 7.00; at E. coli LpxC, 5.60 to 6.30. The MIC in assay [1] (setting [5]) was > 100 µM; in assay [2], 20 to 100 µM (≈ 9.49 to 47.5 µg/mL); in assay [3], > 100 µM; in assay [4] it was 20 to 100 µM (≈ 9.49 to 47.5 µg/mL).
Regarding `CC(C)C(=O)N1C[C@H](NC(=O)[C@@H]2C[C@@H](F)CN2)C[C@@H]1C(=O)NCc1ccc(C#Cc2ccccc2)cc1` [Example 9E], the MIC in assay [1] (setting [5]), in assay [2], in assay [3] and in assay [4] was > 100 µM each time.
`CC(C)C(=O)N1C[C@H](NC(=O)[C@@H]2C[C@H](F)CN2)C[C@@H]1C(=O)NCc1ccc(C#Cc2ccccc2)cc1` [Example 9A]: the MIC in assay [1] (setting [5]) was > 100 µM; in assay [2], 20 to 100 µM (≈ 10.1 to 50.5 µg/mL); in assay [3], > 100 µM; in assay [4], 20 to 100 µM (≈ 10.1 to 50.5 µg/mL).
Consider `CC(C)C(=O)N1C[C@H](NC(=O)[C@@H]2C[C@H](O)CN2)C[C@@H]1C(=O)NCc1ccc(C#CC#CC2CC2)cc1` [Example 9U], for which the MIC was > 100 µM in assay [1] (setting [5]), 20 to 100 µM (≈ 9.81 to 49.1 µg/mL) in assay [2], > 100 µM in assay [3] and > 100 µM in assay [4].
On to `CC(C)C(=O)N1C[C@H](NC(=O)[C@@H]2C[C@@H](O)CN2)C[C@@H]1C(=O)NCc1ccc(C#CC#CC2CC2)cc1` [Example 9Z], for which the minimum inhibitory concentration (MIC) in assay [1] (setting [5]) was > 100 µM; in assay [2], 20 to 100 µM (≈ 9.81 to 49.1 µg/mL); in assay [3] it was > 100 µM; in assay [4], 20 to 100 µM (≈ 9.81 to 49.1 µg/mL).
